Experimental data as given in US20240285634A1, “COMPOUND AND METHOD FOR TREATING CHEMOTHERAPY-ASSOCIATED GASTROINTESTINAL SIDE EFFECTS” (ONQUALITY PHARMACEUTICALS CHINA LTD., priority 2021, published 2024).

Tested on: Chemotherapeutic agent-caused diarrhea models of Balb/c mice
Assay: Relieving effect on diarrhea caused by a chemotherapeutic agent (Examples 1-201)
Assay type: in vivo
Text: Construction of mouse animal models: Chemotherapeutic agent-caused diarrhea models of Balb/c mice were constructed according to the administration mode and frequency of the chemotherapeutic agent as shown in Table 3. After administration for several days, mice developed different extents of diarrhea symptoms (as shown in FIG. 1), which were similar to the conditions in human. Thus, chemotherapeutic agent-caused diarrhea models of mice are very good models to mimic diarrhea in human caused by the chemotherapeutic agent.
Balb/c mice were fed for 1 week, and then divided into groups. The experiment was divided into a control group, a chemotherapeutic agent group, and a group of the compound as shown in Formula I, each of which comprised 10 mice, to perform the administration experiment, for which the administration dosage, mode, time and frequency were shown in Table 3. The control group: being injected or intragastrically administered with the same solvent as that used in the group of the compound as shown in Formula I (the injection mode and time were shown in Table 3), and then being injected or intragastrically administered with the same solvent as that used in the chemotherapeutic agent group (the administration mode was shown in Table 3); the chemotherapeutic agent group: being injected or intragastrically administered with the same solvent as that used in the group of the compound as shown in Formula I (the administration mode and time were shown in Table 3), and then being injected or intragastrically administered with the chemotherapeutic agent (the type, administration mode and dosage were shown in Table 3); the group of the compound as shown in Formula I: being injected or intragastrically administered with the compound as shown in Formula I (the administration mode and time were shown in Table 3), and then being administered with the chemotherapeutic agent (the administration mode and dosage were shown in Table 3).
The scoring of diarrhea can refer to the method of Akinobu Kurita (Cancer Chemother Pharmacol 2000; 46:211-20.), Grade 0: normal feces; Grade 1: mild diarrhea, the stools is slightly wet and soft; Grade 2: moderate diarrhea, loose stools and mild perianal contamination; Grade 3: severe diarrhea, watery stools and accompanied by severe perianal staining (see FIG. 1). It is regarded as effective remission when the diarrhea grading of mice in the group of the compound as shown in Formula I is reduced compared with the average diarrhea grading of mice in the chemotherapeutic agent group.
The diarrhea grading of mice was observed and recorded every day. At the end of the experiment, the number of mice in the group of the compound as shown in Formula I whose diarrhea grading was lower than that of mice in the chemotherapeutic agent group was recorded. Table 3 lists various animal experiment combinations of chemotherapeutic agents and the compound as shown in Formula I, as well as the corresponding experimental results. (Relative remission rate %=the number of mice in the group of the compound as shown in Formula I whose diarrhea has been effectively relieved/the total number of mice in the group of the compound as shown in Formula I*100%. The establishment rate of diarrhea model in the chemotherapeutic agent group was 50%-70%, that is, about 5-7 of 10 mice developed diarrhea during the experiment, and there were cases of individual mice death or not developing diarrhea.)

Measured: Relative remission rate

CN1CCN(c2ccc(Nc3ncc4cc5n(c4n3)C3(CCCCC3)CNC5=O)nc2)CC1 [Compound I, Trilaciclib]
70%: Ex 1, 5-Fu 125 mg/kg intraperitoneal single, compound 100 mg/kg intravenous single 0.5 h before, cycle 10 days | Ex 2, 5-Fu 125 mg/kg intraperitoneal single, compound 100 mg/kg intravenous single 1 h before, cycle 10 days | Ex 16, 5-Fu 125 mg/kg intraperitoneal single, compound 100 mg/kg intravenous single 12 h before, cycle 10 days | Ex 99, Irinotecan (CPT-11) 240 mg/kg intraperitoneal single, compound 100 mg/kg intravenous single 7 h before, cycle 7 days | Ex 100, Irinotecan (CPT-11) 240 mg/kg intraperitoneal single, compound 100 mg/kg intravenous single 8 h before, cycle 7 days | Ex 106, Irinotecan (CPT-11) 240 mg/kg intraperitoneal single, compound 100 mg/kg intravenous single 16 h before, cycle 7 days | Ex 107, Irinotecan (CPT-11) 240 mg/kg intraperitoneal single, compound 100 mg/kg intravenous single 18 h before, cycle 7 days | Ex 119, Irinotecan (CPT-11) 250 mg/kg intramuscular single, compound 100 mg/kg intramuscular single 1 h before, cycle 7 days | Ex 120, Irinotecan (CPT-11) 200 mg/kg intravenous single, compound 100 mg/kg intravenous single 0. h before, cycle 7 days | Ex 121, Fluorouracil 100 + irinotecan 200 mg/kg intravenous single, compound 100 mg/kg intravenous single 0.5 h before, cycle 10 days
30%: Ex 13, 5-Fu 125 mg/kg intraperitoneal single, compound 12.5 mg/kg intravenous single 12 h before, cycle 10 days | Ex 110, Irinotecan (CPT-11) 240 mg/kg intraperitoneal single, compound 100 mg/kg intravenous single 24 h before, cycle 7 days | Ex 125, Fluorouracil 100 + irinotecan 200 mg/kg intravenous single, compound 100 mg/kg intravenous single 24 h before, cycle 10 days | Ex 128, Fluorouracil 100 + irinotecan 200 mg/kg intraperitoneal single, compound 100 mg/kg intraperitoneal single 12 h before, cycle 8 days
40%: Ex 6, 5-Fu 125 mg/kg intraperitoneal single, compound 100 mg/kg intravenous single 5 h before, cycle 10 days | Ex 7, 5-Fu 125 mg/kg intraperitoneal single, compound 100 mg/kg intravenous single 6 h before, cycle 10 days | Ex 8, 5-Fu 125 mg/kg intraperitoneal single, compound 100 mg/kg intravenous single 7 h before, cycle 10 days | Ex 10, 5-Fu 125 mg/kg intraperitoneal single, compound 100 mg/kg intravenous single 9 h before, cycle 10 days | Ex 12, 5-Fu 125 mg/kg intraperitoneal single, compound 100 mg/kg intravenous single 11 h before, cycle 10 days | Ex 14, 5-Fu 125 mg/kg intraperitoneal single, compound 25 mg/kg intravenous single 12 h before, cycle 10 days | Ex 86, Oxaliplatin 17.5 mg/kg intravenous single, compound 150 mg/kg intravenous single 20 h before, cycle 8 days | Ex 95, Irinotecan (CPT-11) 240 mg/kg intraperitoneal single, compound 100 mg/kg intravenous single 3 h before, cycle 7 days | Ex 97, Irinotecan (CPT-11) 240 mg/kg intraperitoneal single, compound 100 mg/kg intravenous single 5 h before, cycle 7 days | Ex 98, Irinotecan (CPT-11) 240 mg/kg intraperitoneal single, compound 100 mg/kg intravenous single 6 h before, cycle 7 days | Ex 102, Irinotecan (CPT-11) 240 mg/kg intraperitoneal single, compound 100 mg/kg intravenous single 10 h before, cycle 7 days | Ex 108, Irinotecan (CPT-11) 240 mg/kg intraperitoneal single, compound 100 mg/kg intravenous single 20 h before, cycle 7 days | Ex 109, Irinotecan (CPT-11) 240 mg/kg intraperitoneal single, compound 100 mg/kg intravenous single 22 h before, cycle 7 days | Ex 122, Fluorouracil 100 + irinotecan 200 mg/kg intravenous single, compound 100 mg/kg intravenous single 4 h before, cycle 10 days | Ex 127, Fluorouracil 100 + irinotecan 200 mg/kg intraperitoneal single, compound 100 mg/kg intraperitoneal single 1 h before, cycle 8 days | Ex 129, Fluorouracil 100 + irinotecan 200 mg/kg intraperitoneal single, compound 150 mg/kg oral single 0.5 h before, cycle 8 days | Ex 130, Fluorouracil 100 + irinotecan 200 mg/kg intraperitoneal single, compound 150 mg/kg oral single 12 h before, cycle 8 days
60%: Ex 3, 5-Fu 125 mg/kg intraperitoneal single, compound 100 mg/kg intravenous single 2 h before, cycle 10 days | Ex 4, 5-Fu 125 mg/kg intraperitoneal single, compound 100 mg/kg intravenous single 3 h before, cycle 10 days | Ex 5, 5-Fu 125 mg/kg intraperitoneal single, compound 100 mg/kg intravenous single 4 h before, cycle 10 days | Ex 15, 5-Fu 125 mg/kg intraperitoneal single, compound 50 mg/kg intravenous single 12 h before, cycle 10 days | Ex 101, Irinotecan (CPT-11) 240 mg/kg intraperitoneal single, compound 100 mg/kg intravenous single 9 h before, cycle 7 days | Ex 103, Irinotecan (CPT-11) 240 mg/kg intraperitoneal single, compound 100 mg/kg intravenous single 11 h before, cycle 7 days | Ex 104, Irinotecan (CPT-11) 240 mg/kg intraperitoneal single, compound 100 mg/kg intravenous single 12 h before, cycle 7 days
50%: Ex 9, 5-Fu 125 mg/kg intraperitoneal single, compound 100 mg/kg intravenous single 8 h before, cycle 10 days | Ex 11, 5-Fu 125 mg/kg intraperitoneal single, compound 100 mg/kg intravenous single 10 h before, cycle 10 days | Ex 17, 5-Fu 125 mg/kg intraperitoneal single, compound 150 mg/kg intravenous single 12 h before, cycle 10 days | Ex 18, 5-Fu 125 mg/kg intraperitoneal single, compound 240 mg/kg intravenous single 12 h before, cycle 10 days | Ex 87, Oxaliplatin 17.5 mg/kg intravenous single, compound 150 mg/kg intravenous single 24 h before, cycle 8 days | Ex 92, Irinotecan (CPT-11) 240 mg/kg intraperitoneal single, compound 100 mg/kg intravenous single 0.5 h before, cycle 7 days | Ex 93, Irinotecan (CPT-11) 240 mg/kg intraperitoneal single, compound 100 mg/kg intravenous single 1 h before, cycle 7 days | Ex 94, Irinotecan (CPT-11) 240 mg/kg intraperitoneal single, compound 100 mg/kg intravenous single 2 h before, cycle 7 days | Ex 96, Irinotecan (CPT-11) 240 mg/kg intraperitoneal single, compound 100 mg/kg intravenous single 4 h before, cycle 7 days | Ex 105, Irinotecan (CPT-11) 240 mg/kg intraperitoneal single, compound 100 mg/kg intravenous single 14 h before, cycle 7 days | Ex 118, Irinotecan (CPT-11) 300 mg/kg oral single, compound 100 mg/kg intraperitoneal single 12 h before, cycle 11 days | Ex 123, Fluorouracil 100 + irinotecan 200 mg/kg intravenous single, compound 100 mg/kg intravenous single 8 h before, cycle 10 days | Ex 124, Fluorouracil 100 + irinotecan 200 mg/kg intravenous single, compound 100 mg/kg intravenous single 12 h before, cycle 10 days
0%: Ex 88, Oxaliplatin 17.5 mg/kg intravenous single, compound 150 mg/kg intravenous single 48 h before, cycle 8 days | Ex 111, Irinotecan (CPT-11) 240 mg/kg intraperitoneal single, compound 100 mg/kg intravenous single 48 h before, cycle 7 days | Ex 126, Fluorouracil 100 + irinotecan 200 mg/kg intravenous single, compound 100 mg/kg intravenous single 48 h before, cycle 10 days
